In ChEMBL document CHEMBL4257461, “Schizophrenia: synthetic strategies and recent advances in drug design” (Medchemcomm, 2018):

Tests used:
[1] = Tmax in human at 9.75 mg, im administered as single dose; format: ADME, organism-based; settings: in vivo
[2] = Drug absorption in po dosed human; format: ADME, organism-based; settings: in vivo, read-out: Drug absorption
[3] = Oral bioavailability in human; format: ADME, organism-based; settings: in vivo
[4] = Half life in po dosed human plasma; format: ADME, organism-based
[5] = Half life in iv dosed human plasma; format: ADME, organism-based
[6] = Half life in im dosed human plasma; format: ADME, organism-based
[7] = Terminal half life in po dosed human; settings: in vivo
[8] = Drug excretion in po dosed human; settings: in vivo

O=C1CCc2ccc(OCCCCN3CCN(c4cccc(Cl)c4Cl)CC3)cc2N1 [ARIPIPRAZOLE]
Tmax [1]: 3 h

CN1CCN(C2=Nc3cc(Cl)ccc3Nc3ccccc32)CC1 [CLOZAPINE]
Fa [2]: 90 to 95%
bioavailability [3]: 50 to 60%

O=C(CCCN1CCC(O)(c2ccc(Cl)cc2)CC1)c1ccc(F)cc1 [HALOPERIDOL]
half-life [4]: 24 h
half-life [5]: 14 h
half-life [6]: 21 h

O=C1[C@@H]2[C@H]3CC[C@H](C3)[C@@H]2C(=O)N1C[C@@H]1CCCC[C@H]1CN1CCN(c2nsc3ccccc23)CC1 [LURASIDONE]
Fa [2]: 9 to 19%

OCCOCCN1CCN(C2=Nc3ccccc3Sc3ccccc32)CC1 [QUETIAPINE]
half-life [7]: 6 h
dose excreted [8]: < 1%
